# Values joined by “and” are separate entries in the source; they are usually repeats but may differ in a detail not shown here. Identical values can stand only once. Like-named read-outs stand apart in the source and are kept apart here.
# Assays:
# [1] = system: MCF-7 cells; assay: MCF-7 cell proliferation assay (MTT reduction); format: cell-based, human; conditions: MCF-7 cells, MTT
# Description: MCF-7 cell line which is sensitive to estrogen (ERα^+) was kindly provided by Dr. Sari Tojkander (Department of Veterinary Biosciences, Faculty of Veterinary Medicine, University of Helsinki). Cells were usually grown in T25 or T75 flasks containing DMEM with or without phenol red and supplemented with 7–10% FBS and 4 mM L-glutamine at 37°C in 5% CO2/95% humidified atmosphere. In order to eliminate the disturbing effect of hormones usually present in FBS, cell culture medium supplemented with commercially available charcoal-stripped FBS and 4 mM L-glutamine (SF medium) was used for experiments.
# The effect of EEDCs on the proliferation of MCF-7 cells was assessed as previously described by measuring the capacity of the cells in each well to reduce MTT reagent (Van Meeuwen et al. [2007]). Approximately 5000 cells/200 μL of SF medium containing DMEM without phenol red, 5% charcoal-stripped FBS, and 4 mM L-glutamine were seeded per well in a 96-well cell culture plate. On day 2, cells were treated with the SF medium containing test compounds or vehicle. The final concentration of the solvents DMSO and EtOH was lower than 0.1%. On day 5, the SF medium containing test compounds or vehicle were refreshed. On day 8, cells were washed with PBS twice and then incubated with the SF medium containing 1 mg/mL MTT reagent for 1 h. The ability of MCF-7 cells to reduce MTT was measured at the reference wavelength of 595 nm using a microplate reader (Multiskan Ascent, Thermo Fisher Scientific). All the exposures were in triplicate.
# The dose-response curves of test samples were plotted against logarithmic-transformed concentrations.
# [2] = system: MCF-7 cells; assay: In vitro micronucleus assay for cytokinesis block; format: cell-based, human; conditions: 24 h; for Micronuclei per 1000 binucleated cells, Replicates: single replicate values
# Description: The genotoxicity of EEDCs to MCF-7 cells was assessed by the in vitro micronucleus assay for cytokinesis block. MCF-7 cells were seeded at a density of 5×10^4/well in a 12-well plate in SF medium containing DMEM, 7% charcoal-stripped FBS and 4 mM L-glutamine. These cells were treated with test compounds or the positive control for 24 h. Then, cells were washed twice with PBS, treated with 2 μg/mL cytochalasin B, and incubated for 1.5–2 normal cell cycle lengths (~24 h for MCF-7 cells). Finally, cells were washed with PBS and fixed with 4% paraformaldehyde for 10–15 min (in PBS, pH 6.9). Before staining cells with 5% Giemsa stain for 20 min, plates were washed again with PBS and dried. The frequency of micronuclei per 1000 binucleated cells was counted for each well, and the ratio of micronucleus frequency in treated vs. control cells was defined as fold induction. Cells in mitosis were omitted.
# [3] = system: mice; set-up: method as in Poul et al. [2009]; conditions: 20, 200 or 1000 mg/kg twice, 24-h interval, oral gavage; ref Poul et al. [2009]; cited from earlier work
# [4] = system: S. cerevisiae BMA64/luc; conditions: values higher than 2 are considered toxic
# Description: Yeast bioluminescent assay was performed as previously described (Omoruyi and Pohjanvirta [2018]). Two recombinant yeasts, Saccharomyces cerevisiae BMAEREluc/ERα and Saccharomyces cerevisiae BMA64/luc, were kindly provided by Dr. Johanna Rajasärkkä, Department of Food and Environmental Sciences, Faculty of Agriculture and Forestry, University of Helsinki. In the BMAEREluc/ERα, human ERα is expressed. After estrogen-like chemicals bind to ERα, the dimerized receptor binds to a specific DNA sequence called estrogen response element (ERE), in the promotor region of the luc reporter gene, inducing its expression. In BMA64/luc, the luciferase is expressed constitutively, and this strain can be used for the evaluation of cytotoxicity of test compounds.
# Both strains were revived from glycerol stock solution on agar and broth forms of synthetic complete medium supplemented with the required amino acids. After the absence of contamination was confirmed by observing single colonies’ morphology on agar plate, approximately 10 μL of cultured yeasts in broth was transferred to 4 mL of synthetic defined (SD) medium supplemented with the required amino acids. The culture was incubated at 30°C on a shaker incubator (200 rpm). After 24-h incubation, the culture was diluted with SD broth to reach the optimal density (OD600) of 0.4 CFU/mL. Subsequently, the culture was incubated in the same incubation condition until the OD600 reached 0.6–0.7 CFU/mL.
# Next, 90 μL of cultured yeasts containing 1:20 luciferin solution (0.042 g luciferin dissolved in 9.75 mL of 0.2 M trisodium citrate, and 5.525 mL of 0.2 M citrate, pH 5) was pipetted into every well of a white 96-well flat-bottom plate, and 10 μL of test compounds in a defined concentration range (diluted in 5% EtOH) were added. The plate was incubated at 30°C for approximately 2.5 h, and was then shaken briefly. The luminescence measurement was performed with Luminoskan Ascent microplate luminometer (Thermo Labsystems) using the recommended settings as follows: 1000 ms integration time, single measurement mode, shaking at 60 rpm for 5 s prior to measurement.
# Each concentration of test compounds and controls in the assay was tested in triplicate, and the experiment was performed twice.
# * The Correction Factor is the luminescence of the strain BMA64/luc with blank solvent divided by the luminescence of the control strain with the sample. Values higher than 2 are considered toxic (Leskinen et al. 2005).
# * The Correction Factor is the luminescence of the strain BMA64/luc with blank solvent divided by the luminescence of the control strain with the sample. Values higher than 2 are considered toxic (Leskinen et al. 2005). […] Each experiment was performed in triplicate.
structure (smiles),measurement,setting,value
O=C([O-])C1=NN(c2ccc(S(=O)(=O)[O-])cc2)C(=O)C1N=Nc1ccc(S(=O)(=O)[O-])cc1.[Na+].[Na+].[Na+] (stereo not drawn) [tartrazine],efficacy (maximum induction of cell growth) compared with 17β-estradiol,[1],about one third
same,EC50,"[1]; hormone-depleted medium, read-out: EC50 (proliferative effect)",7.46 nM
same,Fold (micronucleus frequency treated vs. control),[2]; 10^−7 M,2.81
same,"Micronuclei per 1000 binucleated cells, Average",[2]; 10^−7 M,29 per 1000 binucleated cells
same,"Micronuclei per 1000 binucleated cells, Replicates",[2]; 10^−7 M,29 per 1000 binucleated cells and 31 per 1000 binucleated cells and 27 per 1000 binucleated cells
same,Fold (micronucleus frequency treated vs. control),[2]; 10^−8 M,2.10
same,"Micronuclei per 1000 binucleated cells, Average",[2]; 10^−8 M,21.67 per 1000 binucleated cells
same,"Micronuclei per 1000 binucleated cells, Replicates",[2]; 10^−8 M,21 per 1000 binucleated cells and 19 per 1000 binucleated cells and 25 per 1000 binucleated cells
same,mutagenic or cytotoxic effects in mice,[3],did not elicit mutagenic or cytotoxic effects
same,Correction Factor,"[4]; 5% DMSO, 10^−4 M",3.05±0.70
same,Correction Factor,"[4]; 5% DMSO, 10^−6 M",2.77±0.44
same,Correction Factor,"[4]; 5% DMSO, 10^−8 M",2.05±0.32
same,Correction Factor,"[4]; 5% DMSO, 10^−10 M",2.60±0.54
same,Correction Factor,"[4]; 5% DMSO, 10^−12 M",3.09±0.57
same,Correction Factor,"[4]; 5% DMSO, 10^−14 M",3.43±0.66
same,Correction Factor,"[4]; 5% ethanol, 10^−4 M",0.99±0.08
same,Correction Factor,"[4]; 5% ethanol, 10^−6 M",0.94±0.12
same,Correction Factor,"[4]; 5% ethanol, 10^−8 M",0.95±0.09
same,Correction Factor,"[4]; 5% ethanol, 10^−10 M",1.36±0.30
same,Correction Factor,"[4]; 5% ethanol, 10^−12 M",1.10±0.26
same,Correction Factor,"[4]; 5% ethanol, 10^−14 M",1.14±0.23

# Reference: PMC8164609 (Environmental Science and Pollution Research International, 2021)
